Data from publication PMC3901432 (Bioorganic & medicinal chemistry letters, 2013).

Legend:
[1] = target: mGlu4 (Homo sapiens, UniProt Q14833); assay: mGlu selectivity cell based functional assay; settings: tested at 10 μM
[2] = target: mGlu6 (Homo sapiens, UniProt O15303); assay: mGlu selectivity cell based functional assay; settings: tested at 10 μM
[3] = target: mGlu7 (Homo sapiens, UniProt Q14831); assay: mGlu selectivity cell based functional assay; settings: tested at 10 μM
[4] = target: mGlu3 (Homo sapiens, UniProt Q14832); assay: mGlu selectivity cell based functional assay; settings: tested at 10 μM
Sequence of mGlu3 (Q14832 23-879): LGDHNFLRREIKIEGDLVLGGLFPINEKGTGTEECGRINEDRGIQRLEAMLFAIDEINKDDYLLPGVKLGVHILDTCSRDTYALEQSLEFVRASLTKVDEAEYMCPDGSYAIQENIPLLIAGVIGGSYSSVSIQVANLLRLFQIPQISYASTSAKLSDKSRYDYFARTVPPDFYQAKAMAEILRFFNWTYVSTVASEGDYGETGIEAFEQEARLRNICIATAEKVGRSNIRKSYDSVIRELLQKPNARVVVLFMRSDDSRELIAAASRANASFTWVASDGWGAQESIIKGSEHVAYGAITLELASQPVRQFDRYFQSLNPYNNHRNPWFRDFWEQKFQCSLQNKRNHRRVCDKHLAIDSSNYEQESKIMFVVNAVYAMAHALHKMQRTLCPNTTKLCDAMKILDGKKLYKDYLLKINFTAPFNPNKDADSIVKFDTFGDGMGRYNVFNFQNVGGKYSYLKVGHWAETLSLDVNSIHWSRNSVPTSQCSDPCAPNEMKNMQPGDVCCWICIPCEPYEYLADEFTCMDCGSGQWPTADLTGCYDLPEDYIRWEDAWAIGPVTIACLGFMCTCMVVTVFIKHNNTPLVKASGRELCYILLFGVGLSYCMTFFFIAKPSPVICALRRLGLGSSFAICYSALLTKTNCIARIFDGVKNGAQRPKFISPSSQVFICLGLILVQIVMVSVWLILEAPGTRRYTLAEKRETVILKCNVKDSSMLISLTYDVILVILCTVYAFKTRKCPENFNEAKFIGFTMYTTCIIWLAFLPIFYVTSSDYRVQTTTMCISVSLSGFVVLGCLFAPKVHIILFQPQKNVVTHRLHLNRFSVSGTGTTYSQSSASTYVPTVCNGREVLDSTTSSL

[5] = target: mGlu2 (Homo sapiens, UniProt Q14416); assay: mGlu selectivity cell based functional assay; settings: tested at 10 μM
Sequence of mGlu2 (Q14416 19-872): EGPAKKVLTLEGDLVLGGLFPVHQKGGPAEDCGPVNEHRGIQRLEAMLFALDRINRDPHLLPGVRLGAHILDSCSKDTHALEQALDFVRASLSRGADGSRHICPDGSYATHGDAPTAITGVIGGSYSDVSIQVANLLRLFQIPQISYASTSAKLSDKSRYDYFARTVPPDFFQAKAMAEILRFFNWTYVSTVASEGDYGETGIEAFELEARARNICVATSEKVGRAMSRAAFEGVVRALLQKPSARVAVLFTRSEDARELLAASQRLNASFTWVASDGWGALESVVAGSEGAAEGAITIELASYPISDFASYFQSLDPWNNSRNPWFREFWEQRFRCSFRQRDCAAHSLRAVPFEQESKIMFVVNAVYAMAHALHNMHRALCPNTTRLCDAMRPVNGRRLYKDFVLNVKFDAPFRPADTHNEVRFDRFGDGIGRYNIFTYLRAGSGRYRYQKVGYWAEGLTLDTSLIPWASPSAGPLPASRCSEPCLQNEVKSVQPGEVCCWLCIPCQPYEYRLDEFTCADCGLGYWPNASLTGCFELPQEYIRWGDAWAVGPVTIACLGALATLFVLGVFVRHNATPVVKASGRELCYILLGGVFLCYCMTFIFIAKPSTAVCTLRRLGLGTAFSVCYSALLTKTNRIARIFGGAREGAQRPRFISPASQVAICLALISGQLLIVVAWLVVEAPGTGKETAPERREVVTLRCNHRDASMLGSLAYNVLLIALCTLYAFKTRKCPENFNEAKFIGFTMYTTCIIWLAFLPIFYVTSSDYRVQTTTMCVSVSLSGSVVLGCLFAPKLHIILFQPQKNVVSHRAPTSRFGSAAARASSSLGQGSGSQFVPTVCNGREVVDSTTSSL

[6] = target: CYP3A4 (Homo sapiens, UniProt P08684); assay: Cytochrome P450 inhibition assay in pooled human liver microsomes; assay type: in vitro ADME
[7] = target: mGlu8 (Homo sapiens, UniProt O00222); assay: mGlu selectivity cell based functional assay; settings: tested at 10 μM
[8] = target: human mGlu1 (Homo sapiens, UniProt Q13255); assay: Calcium mobilization mGlu1 assay; assay type: cell-based; settings: for LLE: ligand-lipophilicity efficiency = pIC50−cLogP; for mGlu1 antagonism (in words): up to the top concentration of 30 μM
Sequence of human mGlu1 (Q13255 19-1194): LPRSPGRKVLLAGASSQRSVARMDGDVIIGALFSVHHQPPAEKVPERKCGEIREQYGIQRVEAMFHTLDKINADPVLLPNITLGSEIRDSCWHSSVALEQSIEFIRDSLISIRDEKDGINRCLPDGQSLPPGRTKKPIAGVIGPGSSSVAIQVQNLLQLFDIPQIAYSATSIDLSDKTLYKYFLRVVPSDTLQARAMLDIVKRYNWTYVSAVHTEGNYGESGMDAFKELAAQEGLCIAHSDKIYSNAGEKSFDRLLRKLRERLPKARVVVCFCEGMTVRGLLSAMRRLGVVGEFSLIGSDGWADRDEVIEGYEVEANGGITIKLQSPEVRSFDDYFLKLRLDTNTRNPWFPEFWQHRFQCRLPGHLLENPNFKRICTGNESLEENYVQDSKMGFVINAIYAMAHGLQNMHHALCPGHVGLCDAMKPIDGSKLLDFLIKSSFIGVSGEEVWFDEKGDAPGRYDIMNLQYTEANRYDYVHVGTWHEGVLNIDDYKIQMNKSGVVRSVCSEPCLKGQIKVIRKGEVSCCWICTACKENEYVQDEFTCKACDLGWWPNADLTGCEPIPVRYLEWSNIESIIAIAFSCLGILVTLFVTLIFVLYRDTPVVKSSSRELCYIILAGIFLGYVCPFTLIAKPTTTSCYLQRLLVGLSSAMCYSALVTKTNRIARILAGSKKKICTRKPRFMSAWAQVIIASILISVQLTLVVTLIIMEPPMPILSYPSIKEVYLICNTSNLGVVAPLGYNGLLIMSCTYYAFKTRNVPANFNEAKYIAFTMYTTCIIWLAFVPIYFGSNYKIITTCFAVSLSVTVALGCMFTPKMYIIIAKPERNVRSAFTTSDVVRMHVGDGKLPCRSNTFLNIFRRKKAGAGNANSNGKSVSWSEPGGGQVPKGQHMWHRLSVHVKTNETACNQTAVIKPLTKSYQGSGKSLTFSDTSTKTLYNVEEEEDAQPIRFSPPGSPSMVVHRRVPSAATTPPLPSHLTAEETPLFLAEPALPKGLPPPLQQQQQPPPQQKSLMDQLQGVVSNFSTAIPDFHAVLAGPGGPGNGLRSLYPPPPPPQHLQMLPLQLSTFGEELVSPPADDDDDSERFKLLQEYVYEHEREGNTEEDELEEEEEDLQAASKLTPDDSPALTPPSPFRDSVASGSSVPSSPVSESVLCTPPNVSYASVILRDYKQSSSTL

Sequence of mGlu7 (Q14831 35-915): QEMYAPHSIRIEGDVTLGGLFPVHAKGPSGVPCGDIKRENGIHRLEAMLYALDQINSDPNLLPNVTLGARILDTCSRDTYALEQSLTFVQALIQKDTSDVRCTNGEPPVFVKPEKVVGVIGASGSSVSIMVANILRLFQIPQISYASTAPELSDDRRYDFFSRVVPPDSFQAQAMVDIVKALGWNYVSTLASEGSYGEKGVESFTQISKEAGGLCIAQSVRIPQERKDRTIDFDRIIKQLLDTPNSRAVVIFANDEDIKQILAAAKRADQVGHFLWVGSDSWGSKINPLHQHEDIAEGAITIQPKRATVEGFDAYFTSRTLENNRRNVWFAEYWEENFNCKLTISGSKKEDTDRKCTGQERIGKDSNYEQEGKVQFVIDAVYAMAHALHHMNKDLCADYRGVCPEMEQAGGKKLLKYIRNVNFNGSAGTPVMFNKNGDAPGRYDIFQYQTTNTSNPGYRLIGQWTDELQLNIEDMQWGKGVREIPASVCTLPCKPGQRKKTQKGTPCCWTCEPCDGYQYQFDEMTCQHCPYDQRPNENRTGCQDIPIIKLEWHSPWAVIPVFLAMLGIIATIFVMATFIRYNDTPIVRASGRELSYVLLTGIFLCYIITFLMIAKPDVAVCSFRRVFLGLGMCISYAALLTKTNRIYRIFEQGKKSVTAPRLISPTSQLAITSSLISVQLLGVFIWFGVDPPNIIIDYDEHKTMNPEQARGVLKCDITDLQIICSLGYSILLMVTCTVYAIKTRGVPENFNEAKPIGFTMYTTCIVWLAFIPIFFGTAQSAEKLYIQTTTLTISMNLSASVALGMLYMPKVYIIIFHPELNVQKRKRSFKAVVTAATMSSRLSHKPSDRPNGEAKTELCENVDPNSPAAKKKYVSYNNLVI
Sequence of mGlu4 (Q14833 33-912): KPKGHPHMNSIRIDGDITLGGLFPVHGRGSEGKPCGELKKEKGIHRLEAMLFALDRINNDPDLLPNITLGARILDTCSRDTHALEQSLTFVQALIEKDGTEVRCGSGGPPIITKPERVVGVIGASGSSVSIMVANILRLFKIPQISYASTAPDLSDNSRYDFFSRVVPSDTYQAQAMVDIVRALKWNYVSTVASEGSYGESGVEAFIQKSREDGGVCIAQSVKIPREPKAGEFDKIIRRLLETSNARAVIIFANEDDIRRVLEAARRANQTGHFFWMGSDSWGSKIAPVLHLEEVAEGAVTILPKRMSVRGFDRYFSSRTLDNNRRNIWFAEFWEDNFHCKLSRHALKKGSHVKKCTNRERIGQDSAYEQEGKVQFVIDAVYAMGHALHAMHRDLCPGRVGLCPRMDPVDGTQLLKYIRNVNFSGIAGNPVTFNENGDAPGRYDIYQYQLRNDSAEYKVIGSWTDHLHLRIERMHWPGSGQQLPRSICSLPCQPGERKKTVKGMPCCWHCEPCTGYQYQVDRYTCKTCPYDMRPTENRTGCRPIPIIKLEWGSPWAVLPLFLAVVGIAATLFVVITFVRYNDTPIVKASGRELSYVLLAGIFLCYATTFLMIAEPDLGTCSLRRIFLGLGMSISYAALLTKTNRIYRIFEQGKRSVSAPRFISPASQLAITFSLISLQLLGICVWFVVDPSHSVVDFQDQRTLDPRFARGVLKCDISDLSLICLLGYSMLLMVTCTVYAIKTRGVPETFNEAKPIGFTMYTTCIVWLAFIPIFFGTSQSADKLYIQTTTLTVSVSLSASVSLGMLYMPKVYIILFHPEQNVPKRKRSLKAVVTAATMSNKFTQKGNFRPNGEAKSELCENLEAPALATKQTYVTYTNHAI

`O=C(N1C[C@@H]2CN(c3ccccn3)C[C@@H]2C1)C12CC3CC(CC(C3)C1)C2` [Compound 8] was tested, and the “activity at mGlu4” value [1] was “no activity”, the “activity at mGlu6” value [2] was “very weak and marginal activity” and the “activity at mGlu7” value [3] was “very weak and marginal activity”. For the same compound, the “activity at mGlu3” value [4] was “no activity”, the “activity at mGlu2” value [5] was “no activity” and the “CYP3A4 inhibition (in words)” value [6] was “moderate inhibitors”. For the same compound, the “activity at mGlu8” value [7] was “very weak and marginal activity”, the “human mGlu1 potency relative to 1 (fold more potent)” value [8] was “greater than seven fold” and the LLE [8] was 2.79.

`CC(C)(C)C(=O)N1C[C@@H]2CN(c3ccccn3)C[C@@H]2C1` [Compound 9] was tested, and the “mGlu1 antagonism (in words)” value [8] was “inactive”.

For `CC1(C(=O)N2C[C@@H]3CN(c4ccccn4)C[C@@H]3C2)CCCCC1` [Compound 14], the “mGlu1 potency relative to 8 (fold less potent)” value [8] was “sixty”.

For `CC(C)(C)CC(=O)N1C[C@@H]2CN(c3ccccn3)C[C@@H]2C1` [Compound 16], the “mGlu1 antagonism (in words)” value [8] was “inactive”.

In the case of `O=C(N1C[C@@H]2CN(c3nccs3)C[C@@H]2C1)C12CC3CC(CC(C3)C1)C2` [Compound 23], the “mGlu1 antagonism (in words)” value [8] is reported as “only weak antagonists”.

In the case of `O=C(N1C[C@@H]2CN(c3ncccn3)C[C@@H]2C1)C12CC3CC(CC(C3)C1)C2` [Compound 24], the “mGlu1 antagonism (in words)” value [8] is reported as “only weak antagonists”.

For `O=C(N1C[C@@H]2CN(c3ccncn3)C[C@@H]2C1)C12CC3CC(CC(C3)C1)C2` [Compound 25], the “mGlu1 antagonism (in words)” value [8] was “only weak antagonists”.

In the case of `O=C(N1C[C@@H]2CN(c3cnccn3)C[C@@H]2C1)C12CC3CC(CC(C3)C1)C2` [Compound 26], the “mGlu1 potency relative to 8 (fold less potent)” value [8] is reported as “eight fold” and the LLE [8] is reported as 1.21.

In the case of `O=C(N1C[C@@H]2CN(c3cccc(F)n3)C[C@@H]2C1)C12CC3CC(CC(C3)C1)C2` [Compound 27], the “mGlu1 potency relative to 8 (fold less potent)” value [8] is reported as “equipotent” and the LLE [8] is reported as 2.50.

In the case of `O=C(N1C[C@@H]2CN(c3ccc(F)cn3)C[C@@H]2C1)C12CC3CC(CC(C3)C1)C2` [Compound 28], the “mGlu1 potency relative to 8 (fold less potent)” value [8] is reported as “six fold” and the LLE [8] is reported as 1.88.

In the case of `O=C(N1C[C@@H]2CN(c3ncccc3F)C[C@@H]2C1)C12CC3CC(CC(C3)C1)C2` [Compound 29], the “mGlu1 potency relative to 8 (fold less potent)” value [8] is reported as 12 fold.

For `N#Cc1ccccc1N1C[C@H]2CN(C(=O)C34CC5CC(CC(C5)C3)C4)C[C@H]2C1` [Compound 30], the LLE [8] was 2.18.

In the case of `N#Cc1ccncc1N1C[C@H]2CN(C(=O)C34CC5CC(CC(C5)C3)C4)C[C@H]2C1` [Compound 32], the “mGlu1 antagonism (in words)” value [8] is reported as “moderate potency”.

In the case of `N#Cc1ncccc1N1C[C@H]2CN(C(=O)C34CC5CC(CC(C5)C3)C4)C[C@H]2C1` [Compound 34], the LLE [8] is reported as 2.87 and the “mGlu1 antagonism (in words)” value [8] is reported as “moderate potency”.

With `O=C(N1C[C@@H]2CN(c3ccccn3)C[C@@H]2C1)N1CCC2(CCCC2)C1` [Compound 38] the “activity at mGlu4” value [1] was “no activity”, the “activity at mGlu6” value [2] was “very weak and marginally significant activity” and the “activity at mGlu7” value [3] was “no activity”. For the same compound, the “activity at mGlu3” value [4] was “no activity”, the “activity at mGlu2” value [5] was “no activity” and the “activity at mGlu8” value [7] was “very weak and marginally significant activity”. The “mGlu1 potency relative to 8 (fold less potent)” value [8] was “three fold” and the LLE [8] was 4.12.

With `O=C(N1CCC2(CCCCC2)CC1)N1C[C@@H]2CN(c3ccccn3)C[C@@H]2C1` [Compound 40] the LLE [8] was 2.71.

For `C[C@@H]1CN(c2cccnc2C#N)CCN1C(=O)C12CC3CC(CC(C3)C1)C2` [VU0469650, reference compound], the “CYP3A4 inhibition (in words)” value [6] was “moderate inhibitors”.
